The subject of the test is L1210 leukemia ip in BDF1 mice, survival T/C. Kind of test: NCI In Vivo Anticancer Drug Screen. Data for tumor model L1210 Leukemia (intraperitoneal) in B6D2F1 (BDF1) mice. Conditions: endpoint: mean survival time, higher = longer survival. The method, boiled down:
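Transplanted-tumor mice were given test agent; controls received vehicle only. Survival readings from the two groups were divided (treated over control).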

Setting [1] is: dose: 100.0 mg/kg/injection, schedule: Q01DX009 (ip), vehicle: Klucel (hydroxypropylcellulose) (HPC).
Setting [2] is: dose: 200.0 mg/kg/injection, schedule: Q01DX009 (ip), vehicle: Klucel (hydroxypropylcellulose) (HPC).
[3] abbreviates: dose: 400.0 mg/kg/injection, schedule: Q01DX009 (ip), vehicle: Klucel (hydroxypropylcellulose) (HPC).
[4] abbreviates: dose: 100.0 mg/kg/injection, schedule: Q04DX003 (ip), vehicle: saline with Tween-80.
Where [5] appears, read: dose: 200.0 mg/kg/injection, schedule: Q04DX003 (ip), vehicle: saline with Tween-80.
[6] abbreviates: dose: 400.0 mg/kg/injection, schedule: Q04DX003 (ip), vehicle: saline with Tween-80.
The mark [7] stands for this setting: dose: 100.0 mg/kg/injection, schedule: Q01DX001 (ip), vehicle: saline.
The mark [8] stands for this setting: dose: 200.0 mg/kg/injection, schedule: Q01DX001 (ip), vehicle: saline.
[9] abbreviates: dose: 100.0 mg/kg/injection, schedule: Q04DX002 (ip), vehicle: Klucel (hydroxypropylcellulose) (HPC).
Where [10] appears, read: dose: 200.0 mg/kg/injection, schedule: Q04DX002 (ip), vehicle: Klucel (hydroxypropylcellulose) (HPC).
Where [11] appears, read: dose: 400.0 mg/kg/injection, schedule: Q04DX002 (ip), vehicle: Klucel (hydroxypropylcellulose) (HPC).
The mark [12] stands for this setting: dose: 100.0 mg/kg/injection, schedule: Q04DX003 (ip), vehicle: Klucel (hydroxypropylcellulose) (HPC).
Where [13] appears, read: dose: 200.0 mg/kg/injection, schedule: Q04DX003 (ip), vehicle: Klucel (hydroxypropylcellulose) (HPC).
[14] abbreviates: dose: 400.0 mg/kg/injection, schedule: Q04DX003 (ip), vehicle: Klucel (hydroxypropylcellulose) (HPC).

The source of these data is PubChem BioAssay AID248 (DTP/NCI, 2004).

Where “and” joins values, the source holds several entries; their conditions need not be identical. Equal values may be shown once. Toxic doses and inconclusive results are not listed.

For `Cc1ccccc1SC(=O)Nc1ccc([N+](=O)[O-])cc1Cl`, the T/C by setting is: under setting [1], 96 % of control; under setting [2], 94 % of control; under setting [3], 94 % of control.
With `O=C(CCl)Nc1ccc([N+](=O)[O-])cc1`, the T/C by setting is: (dose: 25.0 mg/kg/injection, schedule: Q04DX002 (ip), vehicle: saline with Tween-80) 103 % of control; (dose: 50.0 mg/kg/injection, schedule: Q04DX002 (ip), vehicle: saline with Tween-80) 93 % of control; (dose: 100.0 mg/kg/injection, schedule: Q04DX002 (ip), vehicle: saline with Tween-80) 97 % of control.
As for `CCOC(=O)C1=C(C)NC(=O)NC1c1ccc(N=Cc2cc(Br)ccc2O)cc1` (stereo not drawn), the T/C reads like this: under setting [4], 97 % of control; under setting [5], 97 % of control; under setting [6], 89 % of control.
Regarding `CCOC(=O)c1cnc2c(ccc3cc(OC)ccc32)c1NCCCN(CC)CC`, the T/C by setting is: (dose: 50.0 mg/kg/injection, schedule: Q01DX009 (ip), vehicle: Klucel (hydroxypropylcellulose) (HPC)) 105 % of control; under setting [1], 108 % of control; under setting [2], 94 % of control.
As for `CCCCCCCCCCCCCCCCOc1ccc(C)cc1`, the T/C runs as follows: under setting [4], 100 % of control; under setting [5], 103 % of control; under setting [6], 97 % of control.
Consider `O=NN(CCCl)C(=O)Nc1cc(NC(=O)N(CCCl)N=O)cc(C(=O)O)c1`, for which the T/C by setting is: (dose: 0.22 mg/kg/injection, schedule: Q01DX009 (ip), vehicle: saline) 110 % of control; (dose: 0.34 mg/kg/injection, schedule: Q01DX009 (ip), vehicle: saline) 117 % of control; (dose: 0.52 mg/kg/injection, schedule: Q01DX009 (ip), vehicle: saline) 290 % of control; (dose: 0.62 mg/kg/injection, schedule: Q01DX001 (ip), vehicle: carboxymethylcellulose (CMC)) 112 % of control; (dose: 0.83 mg/kg/injection, schedule: Q04DX003 (ip), vehicle: saline) 114 % of control; (dose: 1.25 mg/kg/injection, schedule: Q01DX001 (ip), vehicle: carboxymethylcellulose (CMC)) 123 % of control. Also, the T/C (dose: 1.25 mg/kg/injection, schedule: Q04DX003 (ip), vehicle: saline) was 122 % of control; the T/C (dose: 1.7 mg/kg/injection, schedule: Q01DX001 (ip), vehicle: saline) is 155 % of control; the T/C (dose: 2.6 mg/kg/injection, schedule: Q01DX001 (ip), vehicle: saline with Tween-80) was 151 % of control; the T/C (dose: 5.0 mg/kg/injection, schedule: Q01DX009 (ip), vehicle: Klucel (hydroxypropylcellulose) (HPC)) is 93 % of control; the T/C (dose: 5.0 mg/kg/injection, schedule: Q01DX009 (ip), vehicle: saline) was 162 % of control; the T/C (dose: 6.6 mg/kg/injection, schedule: Q04DX003 (ip), vehicle: saline) was 153 % of control. Moreover, the T/C was 152 % of control (dose: 9.0 mg/kg/injection, schedule: Q01DX001 (ip), vehicle: saline); 150 % of control and 160 % of control (dose: 10.0 mg/kg/injection, schedule: Q01DX009 (ip), vehicle: Klucel (hydroxypropylcellulose) (HPC)); 212 % of control (dose: 10.0 mg/kg/injection, schedule: Q01DX009 (ip), vehicle: saline); 150 % of control (dose: 12.0 mg/kg/injection, schedule: Q01DX001 (ip), vehicle: saline); 155 % of control (dose: 13.0 mg/kg/injection, schedule: Q04DX003 (ip), vehicle: saline); 150 % of control (dose: 15.0 mg/kg/injection, schedule: Q01DX009 (ip), vehicle: Klucel (hydroxypropylcellulose) (HPC)). Moreover, the T/C is 196 % of control (dose: 17.0 mg/kg/injection, schedule: Q01DX001 (ip), vehicle: saline with Tween-80); 195 % of control (dose: 20.0 mg/kg/injection, schedule: Q01DX009 (ip), vehicle: Klucel (hydroxypropylcellulose) (HPC)); 102 % of control (dose: 20.0 mg/kg/injection, schedule: Q01DX009 (ip), vehicle: saline); 161 % of control (dose: 20.0 mg/kg/injection, schedule: Q04DX003 (ip), vehicle: saline); 155 % of control (dose: 26.0 mg/kg/injection, schedule: Q01DX001 (ip), vehicle: saline with Tween-80); 152 % of control (dose: 26.0 mg/kg/injection, schedule: Q01DX001 (ip), vehicle: saline).
For the compound `CCc1ccccc1NC(=O)Nc1ccc(Cl)cc1`, the T/C is, setting by setting: (dose: 100.0 mg/kg/injection, schedule: Q01DX009 (ip), vehicle: gum acacia) 96 % of control; (dose: 100.0 mg/kg/injection, schedule: Q04DX003 (ip), vehicle: gum acacia) 95 % of control; (dose: 200.0 mg/kg/injection, schedule: Q01DX009 (ip), vehicle: gum acacia) 96 % of control; (dose: 200.0 mg/kg/injection, schedule: Q04DX003 (ip), vehicle: gum acacia) 98 % of control; (dose: 400.0 mg/kg/injection, schedule: Q01DX009 (ip), vehicle: gum acacia) 97 % of control; (dose: 400.0 mg/kg/injection, schedule: Q04DX003 (ip), vehicle: gum acacia) 97 % of control.
Regarding `CCOC(=O)C[Si](C)(c1ccccc1)c1ccccc1`, the T/C is, setting by setting: under setting [7], 108 % of control; under setting [8], 94 % of control; (dose: 400.0 mg/kg/injection, schedule: Q01DX001 (ip), vehicle: saline) 89 % of control.
As for `N#C/C(=C\c1ccncc1)c1csc2ccccc12`, the T/C is, setting by setting: under setting [4], 101 % of control; under setting [5], 100 % of control; under setting [6], 94 % of control.
On to `N#C/C(C(N)=O)=C1\CCCc2sccc21`, for which the T/C by setting is: under setting [7], 102 % of control; under setting [8], 95 % of control.
For `CCOC(=O)c1nc(N2CCOCC2)c2ccccc2n1`, the T/C runs as follows: under setting [9], 104 % of control; under setting [10], 101 % of control; under setting [11], 95 % of control.
As to `Cc1ccc(NC(=O)NCCCOc2ccc(N3C(N)=NC(N)=NC3(C)C)cc2Cl)cc1S(=O)(=O)F`, the T/C is, setting by setting: (dose: 50.0 mg/kg/injection, schedule: Q01DX001 (ip), vehicle: saline) 93 % of control; under setting [7], 98 % of control; under setting [8], 97 % of control.
Turning to `Cc1ccc(NC(=O)COc2ccc(Cl)cc2Cl)cc1NC(=O)COc1ccc(Cl)cc1Cl`, the T/C was 89 % of control under setting [9], 92 % of control under setting [10] and 100 % of control under setting [11].
With `NC(=O)Nc1ccc(Cl)cc1`, the T/C is, setting by setting: (dose: 100.0 mg/kg/injection, schedule: Q01DX009 (ip), vehicle: saline with Tween-80) 101 % of control; under setting [12], 99 % of control; (dose: 200.0 mg/kg/injection, schedule: Q01DX009 (ip), vehicle: saline with Tween-80) 96 % of control; under setting [13], 91 % of control; under setting [14], 102 % of control.
As for `CN1CN(c2ccccc2)C2(CCN(CCCC3Cc4ccccc4O3)CC2)C1=O` (stereo not drawn), the T/C is, setting by setting: (dose: 12.0 mg/kg/injection, schedule: Q01DX001 (ip), vehicle: Klucel (hydroxypropylcellulose) (HPC)) 95 % of control; (dose: 25.0 mg/kg/injection, schedule: Q01DX001 (ip), vehicle: Klucel (hydroxypropylcellulose) (HPC)) 98 % of control; (dose: 50.0 mg/kg/injection, schedule: Q01DX001 (ip), vehicle: Klucel (hydroxypropylcellulose) (HPC)) 96 % of control.
For the compound `CN(C)C(=S)Oc1ccc(N)cc1`, the T/C by setting is: under setting [12], 94 % of control; under setting [13], 101 % of control; under setting [14], 94 % of control.
Turning to `COc1ccc2c(c1O)C13CCN(C)C(C2)C1CCC(O)C3` (stereo not drawn), the T/C is, setting by setting: under setting [1], 95 % of control; under setting [12], 104 % of control; under setting [2], 101 % of control; under setting [13], 88 % of control; under setting [3], 98 % of control; under setting [14], 86 % of control.
With `Nc1nc(Cl)cc2c1ncn2C1OC(CO)C(O)C1O` (stereo not drawn), the T/C runs as follows: (dose: 100.0 mg/kg/injection, schedule: Q01DX005 (ip), vehicle: saline) 105 % of control; (dose: 200.0 mg/kg/injection, schedule: Q01DX005 (ip), vehicle: saline) 107 % of control.
In the case of `OCCN(CCO)Cc1cc(Cl)c2cccnc2c1O`, the T/C is, setting by setting: (dose: 75.0 mg/kg/injection, schedule: Q01DX001 (ip), vehicle: saline) 102 % of control; (dose: 150.0 mg/kg/injection, schedule: Q01DX001 (ip), vehicle: saline) 104 % of control.
